# Test results published in EP0294814B1, “Treating agents for renal diseases” (DAIICHI PHARMACEUTICAL CO., LTD., priority 1987, dated 1988).
# Counter-ions that a name gives are not always drawn.
# Key:
# rats = experiment: Acute toxicity in rats; assay type: in vivo
# Source text: Acute toxicities of a hydrochloride hemihydrate of Compound A in rats through oral administration or intravenous injection were as follows.
# thromboxane A₂ = settings: known from prior art; cited from earlier work
# [1] = tested on: diabetic nephropathy or glomerulonephritis; settings: applied to diabetic nephropathy or glomerulonephritis, literature reports; cited from earlier work
# [2] = Hydronephrosis model: clearance test; assay type: in vivo, SD male rat; settings: Normal Kidney, 0.3 µg/min infused into renal artery, mean±S.E. of 5 cases
# Protocol: (§1) An abdominal incision was made in a SD male rat having a body weight of from 300 to 400 g under light anesthesia with diethyl ether. After the left urinary tract was ligated in the middle between the bladder and the kidney, the incision was closed, and the animal was fed on foods and tap water, ad lib.
# (§2) After 18 hours from the ligation of the urinary tract, a cannula was inserted in the urinary tracts on both sides, the right femoral artery and the right femoral vein for collection of blood samples, infusion of inulin and infusion of p-aminohippuric acid, respectively, under Inactin anesthesia. Physiological saline containing 20 mg/ml of inulin and physiological saline containing 4 mg/ml of p-aminohippuric acid were continuously infused each at a rate of 0.4 ml/min in a 1/20 amount of the body weight. On confirming that the urinary output became constant after 50 minutes from the start of the infusion, urine was collected separately from the right and left urinary tracts at intervals of 20 minutes, and blood samples were obtained at the middle between urine collections. Immediately preceding the start of urine collection, infusion of physiological saline at a rate of 25 µl/min into the left femoral artery was instituted and continued for 40 minutes. Thereafter, a solution of a hydrochloride hemihydrate of Compound A in physiological saline was continuously infused at a dose level of 0.3 µg/25 µl/min/rat for 40 minutes into the inlet of the renal artery through a retrograde cannula inserted from the left femoral artery. Inulin levels in urine and in blood were determined according to the anthrone method (H.H. Hilger et al., Pflügers Arch Physiol., Vol. 267, 218 (1958)), and p-aminohippuric acid levels in urine and blood were determined according to the method of Smith et al. (H.W. Smith et al., J. Clin. Invest., Vol. 24, 388 (1945)), to calculate clearance values of inulin and p-aminohippuric acid.
# Hydronephrotic Kidney = experiment: Hydronephrosis model: clearance test; assay type: in vivo, SD male rat; settings: Normal Kidney, 0.3 µg/min infused into renal artery, mean±S.E. of 5 cases
# Protocol: as §1, §2
# [3] = Diabetic nephropathy model: influence on body weight of SHR and diabetic SHR; assay type: in vivo, rat; settings: SHR
# Protocol: (§3) 5-Week old spontaneous hypertensive male rats (SHR) and normotensive Wister Kyoto rats (WKY), both available from Nippon Charles River, were used. Streptozotocin (STZ) was dissolved in a 0.1M citrate buffer solution (pH 4.5) and injected to the tail vein of the rat at a dose level of 50 mg/kg to prepare a diabetic rat. For control, the rat received 1 ml/kg of the citrate buffer solution alone through administration to the tail vein. After one week from the STZ administration, blood was taken from the tail vein of the unanesthetized rat, and the blood sugar level was measured. Those rats having a blood sugar level of […] or higher were used as diabetic rats. […]
# Diabetic SHR = experiment: Diabetic nephropathy model: excretion of protein, γ-GTP and NAβG in the urine; assay type: in vivo, rat; settings: after 4 months of administration
# Protocol: as §3
# After 4 months from the start of the administration of Compound A, urine was collected for 24 hours, and the protein, γ-GTP activity and NAβG activity in the urine were determined by the method of Kinsbury et al., the method of using a commercially available kit (γ-GTP Test Pack, produced by Sankyo Co., Ltd.), and the method of Hasebe et al., respectively.
# [4] = tested on: Ischemic Insufficient Kidney; experiment: Ischemic renal insufficiency model: renal function; assay type: in vivo, SD rat; settings: 10 mg/kg intraperitoneally 30 minutes before ligature of renal arteries; 24 hours after reperfusion; mean±S.E.
# Protocol: An abdominal incision was made in a SD vale rat weighing 300 to 450 g under pentobarbital anesthesia, and renal arteries of both sides were ligated with a clamp for 40 minutes and then reopened to prepare an animal suffering from isochemic renal insufficiency.
# The hydrochloride hemihydrate of Compound A was dissolved in physiological saline, and administered intraperitoneally to the test animal at a dose level of 10 mg/2 ml/kg 30 minutes before the ligature of the renal arteries. The control group received the same volume of physiological saline.
# After the blood flow of the renal arteries was restored, the animal was fed on foods and tap water ad lib. for 24 hours. The clearance values of inulin and p-aminohippuric acid were determined in the same manner as described in Example 2.
smiles,measurement,setting,value
"O=C(O)c1ccc2c(c1)CCC(Cn1ccnc1)C2 (centres unmarked) [hydrochloride hemihydrate of Compound A, 6-(1-imidazolylmethyl)-5,6,7,8-tetrahydronaphthalene-2-carboxylic acid]",LD₅₀,"rats; Female rats, i.v.",783 (i.v.) mg
same,LD₅₀,"rats; Female rats, p.o.",1994 (p.o.) mg
same,LD₅₀,"rats; Male rats, i.v.",807 mg
same,LD₅₀,"rats; Male rats, p.o.",2438 mg
"Cl.O=C(O)/C=C/c1ccc(Cn2ccnc2)cc1 [(E)-3-(4-(1-Imidazolylmethyl)phenyl)propenoic acid hydrochloride, reference compound]",inhibition of the synthesis of thromboxane A₂,thromboxane A₂,inhibit the synthesis of thromboxane A₂
same,effect in treatment of renal diseases,[1],not satisfactory
"O=C(O)c1ccc2c(c1)CCC(Cn1ccnc1)C2 (centres unmarked) [Compound A, 6-(1-imidazolylmethyl)-5,6,7,8-tetrahydronaphthalene-2-carboxylic acid]",Inulin Clearance,[2],1.77± 0.13 ml/min/ kidney
same,Urinary Output,Hydronephrotic Kidney,7.47± 0.83 µℓ/min/ kidney
same,p-Aminohippuric Acid Clearance,Hydronephrotic Kidney,5.95±0.50 ml/min/kidney
same,Body Weight (Mean±S.E.),"[3]; 1 mg/kg/day, 1 Month after start of admin.",280.3 ± 4.0 g
same,Body Weight (Mean±S.E.),"[3]; 1 mg/kg/day, 5 Months after start of admin.",392.4 ± 5.6 g
same,Body Weight (Mean±S.E.),"[3]; 10 mg/kg/day, 1 Month after start of admin.",278.7 ± 5.3 g
same,Body Weight (Mean±S.E.),"[3]; 10 mg/kg/day, 5 Months after start of admin.",385.3 ± 7.5 g
same,Excretion in Urine for 24 h NAβG,Diabetic SHR; 1 mg/kg/day oral,0.536± 0.086 mg/100 g B.W.
same,Excretion in Urine for 24 h Protein,Diabetic SHR; 1 mg/kg/day oral,6.82± 1.56 mg/100 g B.W.
same,Excretion in Urine for 24 h γ-GTP,Diabetic SHR; 1 mg/kg/day oral,2.83± 0.32 U/100 g B.W.
same,Excretion in Urine for 24 h NAβG,Diabetic SHR; 10 mg/kg/day oral,0.412± 0.056 mg/100 g B.W.
same,Excretion in Urine for 24 h Protein,Diabetic SHR; 10 mg/kg/day oral,4.00± 0.59 mg/100 g B.W.
same,Excretion in Urine for 24 h γ-GTP,Diabetic SHR; 10 mg/kg/day oral,2.45± 0.22 U/100 g B.W.
same,inhibition of the synthesis of thromboxane A₂,thromboxane A₂,inhibit the synthesis of thromboxane A₂
same,Inulin Clearance,[4],0.32± 0.05 ml/min/kidney
same,Urinary Output,[4],11.30± 1.53 µl/min/kidney
same,p-Aminohippuric Acid Clearance,[4],1.01±0.17 ml/min/kidney
